Measured values reported in patent publication US11000033B2, “Ketone or oxime compound, and herbicide” (NISSAN CHEMICAL CORPORATION, priority 2014, dated 2021).

Key:
Format in all cases: in vivo
[1] = tested on: transplanted rice plant; assay: Test Example 1: effect on crop, application before weed generation in submerged conditions (symbol a); conditions: application herbicide amount 320 g/ha
In short: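 Rice at 2.5 leaf stage transplanted into submerged soil (4 cm depth) sown with three weed species; herbicide applied before weed emergence.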

[2] = tested on: Digitaria ciliaris; assay: Test Example 4: herbicidal effect by soil treatment (symbol F); conditions: application herbicide amount 320 g/ha
In short: (§1)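 Seeds were sown in sterilized diluvial soil, covered with about 1.5 cm of soil, and the soil surface was sprayed with a water-diluted emulsion of the compound at a predetermined rate. Plants grew in a greenhouse at 25° C. to 30° C.; effects were scored visually 3 weeks after application.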

[3] = tested on: beet; assay: Test Example 4: effect on crop by soil treatment (symbol f); conditions: application herbicide amount 320 g/ha
In short: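 Soil-treatment setup: crop and weed seeds were spot-sown into sterilized diluvial soil, then buried beneath approximately 1.5 cm of it, and the boxes were housed in a 25–30° C. greenhouse.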

[4] = tested on: Lolium multiflorum Lam.; assay: Test Example 4: herbicidal effect by soil treatment (symbol K); conditions: application herbicide amount 320 g/ha
In short: as §1

[5] = tested on: Echinochloa crus-galli var. crus-galli; assay: Test Example 3: herbicidal effect by foliage application, Wagner pot (symbol H); conditions: application herbicide amount 320 g/ha; for H (Echinochloa crus-galli var. crus-galli) herbicidal effect grade: Table 24
In short: (§2)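 Steps: fill pot with alluvial soil; add water to 0.1–0.5 cm depth; sow weed and rice seed; grow 14 days at 25–30 °C; spray diluted emulsion over the leaves; rate effect after 3 weeks.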

[6] = tested on: directly sowed rice plant; assay: Test Example 3: effect on crop by foliage application, Wagner pot (symbol b); conditions: application herbicide amount 320 g/ha; for b (directly sowed rice plant) effect on crop grade: Table 24
In short: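 Wagner pot (1/10000 are), alluvial soil, submerged 0.1–0.5 cm; sown E. crus-galli var. crus-galli, L. chinensis, C. difformis, rice; greenhouse 25–30 °C.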

[7] = tested on: Leptochloa chinensis; assay: Test Example 3: herbicidal effect by foliage application, Wagner pot (symbol D); conditions: application herbicide amount 320 g/ha; for D (Leptochloa chinensis) herbicidal effect grade: Table 24
In short: as §2

[8] = tested on: Monochoria vaginalis; assay: Test Example 1: herbicidal activity, application before weed generation in submerged conditions (symbol C); conditions: application herbicide amount 320 g/ha
In short: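 Application before weed emergence: an aqueous dilution of the emulsion formulation was poured onto the surface of 4 cm-deep floodwater on the day of sowing. Effect was judged after 3 weeks (greenhouse, 25–30 °C).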

[9] = tested on: soybean; assay: Test Example 5: effect on crop by foliage application, plastic box (symbol d); conditions: 320 g/ha, 3 weeks after application
In short: (§3)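 In a plastic box 7 cm deep filled with sterilized diluvial soil, seeds of crops and weeds such as Digitaria ciliaris, Avena fatua and Amaranthus retroflexus are sown in spots and covered with about 1.5 cm of soil before greenhouse growth at 25–30° C.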

[10] = tested on: corn; assay: Test Example 5: effect on crop by foliage application, plastic box (symbol c); conditions: 320 g/ha, 3 weeks after application
In short: as §3

[11] = tested on: Echinochloa oryzacola Vasing.; assay: Test Example 2: herbicidal activity, application during weed generation in submerged conditions (symbol A); conditions: Table 23; application herbicide amount 320 g/ha; grade 0-5 by criteria of Test Example 1
In short: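 Submerged alluvial soil (4 cm) sown with mixed seed; greenhouse 25–30° C. 1–2 leaf: diluted emulsion onto water surface, preset dose. Visual score, 3 wk.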

[12] = tested on: Chenopodium album; assay: Test Example 4: herbicidal effect by soil treatment (symbol O); conditions: application herbicide amount 320 g/ha
In short: as §1

SMILES: CON=C(C)CC1C(O)=C(c2c(C)cc(C)cc2C)C(=O)C1C (mixture of isomers) [12-002]
- a (transplanted rice plant) effect on crop grade [1]: 3 (Herbicidal ratio of 40% or higher and lower than 70%)
- Herbicidal effect grade, F: Digitaria ciliaris [2]: 4 (Herbicidal ratio of 70% or higher and lower than 90%)
- Effect on crop grade, f: beet [3]: 0 (Herbicidal ratio of 5% or lower (almost no effect))
- Herbicidal effect grade, K: Lolium multiflorum Lam. [4]: 5 (Herbicidal ratio of 90% or more (almost completely withered))
- H (Echinochloa crus-galli var. crus-galli) herbicidal effect grade [5]: 5 (Herbicidal ratio of 90% or more (almost completely withered))
- b (directly sowed rice plant) effect on crop grade [6]: 5 (Herbicidal ratio of 90% or more (almost completely withered))
- D (Leptochloa chinensis) herbicidal effect grade [7]: 5 (Herbicidal ratio of 90% or more (almost completely withered))
- C (Monochoria vaginalis) herbicidal effect grade [8]: 2 (Herbicidal ratio of 20% or higher and lower than 40%)
- d: soybean, effect on crop grade [9]: 1 (Herbicidal ratio of 5% or higher and lower than 20%)
- c: corn, effect on crop grade [10]: 5 (Herbicidal ratio of 90% or more (almost completely withered))
- Herbicidal effect grade, A: Echinochloa oryzacola Vasing. [11]: 5 (Herbicidal ratio of 90% or more (almost completely withered))
- Herbicidal effect grade, O: Chenopodium album [12]: 0 (Herbicidal ratio of 5% or lower (almost no effect))

SMILES: CC#Cc1cc(C)c(C2=C(O)CC(CC(C)=NOCC(F)(F)F)C2=O)c(C)c1 (stereo not drawn) [9-011]
- a (transplanted rice plant) effect on crop grade [1]: 5 (Herbicidal ratio of 90% or more (almost completely withered))
- Herbicidal effect grade, F: Digitaria ciliaris [2]: 5 (Herbicidal ratio of 90% or more (almost completely withered))
- Effect on crop grade, f: beet [3]: 0 (Herbicidal ratio of 5% or lower (almost no effect))
- Herbicidal effect grade, K: Lolium multiflorum Lam. [4]: 5 (Herbicidal ratio of 90% or more (almost completely withered))
- H (Echinochloa crus-galli var. crus-galli) herbicidal effect grade [5]: 5 (Herbicidal ratio of 90% or more (almost completely withered))
- b (directly sowed rice plant) effect on crop grade [6]: 5 (Herbicidal ratio of 90% or more (almost completely withered))
- D (Leptochloa chinensis) herbicidal effect grade [7]: 5 (Herbicidal ratio of 90% or more (almost completely withered))
- C (Monochoria vaginalis) herbicidal effect grade [8]: 4 (Herbicidal ratio of 70% or higher and lower than 90%)
- d: soybean, effect on crop grade [9]: 2 (Herbicidal ratio of 20% or higher and lower than 40%)
- c: corn, effect on crop grade [10]: 5 (Herbicidal ratio of 90% or more (almost completely withered))
- Herbicidal effect grade, A: Echinochloa oryzacola Vasing. [11]: 5 (Herbicidal ratio of 90% or more (almost completely withered))
- Herbicidal effect grade, O: Chenopodium album [12]: 0 (Herbicidal ratio of 5% or lower (almost no effect))

SMILES: CC(CC1CC(O)=C(c2c(C)cc(-n3cc(Cl)cn3)cc2C)C1=O)=NOCC(F)(F)F (stereo not drawn) [9-010]
- a (transplanted rice plant) effect on crop grade [1]: 5 (Herbicidal ratio of 90% or more (almost completely withered))
- Herbicidal effect grade, F: Digitaria ciliaris [2]: 5 (Herbicidal ratio of 90% or more (almost completely withered))
- Effect on crop grade, f: beet [3]: 0 (Herbicidal ratio of 5% or lower (almost no effect))
- Herbicidal effect grade, K: Lolium multiflorum Lam. [4]: 5 (Herbicidal ratio of 90% or more (almost completely withered))
- H (Echinochloa crus-galli var. crus-galli) herbicidal effect grade [5]: 5 (Herbicidal ratio of 90% or more (almost completely withered))
- b (directly sowed rice plant) effect on crop grade [6]: 5 (Herbicidal ratio of 90% or more (almost completely withered))
- D (Leptochloa chinensis) herbicidal effect grade [7]: 5 (Herbicidal ratio of 90% or more (almost completely withered))
- C (Monochoria vaginalis) herbicidal effect grade [8]: 4 (Herbicidal ratio of 70% or higher and lower than 90%)
- d: soybean, effect on crop grade [9]: 2 (Herbicidal ratio of 20% or higher and lower than 40%)
- c: corn, effect on crop grade [10]: 3 (Herbicidal ratio of 40% or higher and lower than 70%)
- Herbicidal effect grade, A: Echinochloa oryzacola Vasing. [11]: 4 (Herbicidal ratio of 70% or higher and lower than 90%)
- Herbicidal effect grade, O: Chenopodium album [12]: 0 (Herbicidal ratio of 5% or lower (almost no effect))

SMILES: CON=C(C)CC1CC(OC(C)=O)=C(c2c(C)cc(C)cc2C)C1=O (stereo not drawn) [1-005]
- Effect grade on crop, a: transplanted rice plant [1]: 5 (Herbicidal ratio of 90% or more (almost completely withered))
- F (Digitaria ciliaris) herbicidal effect grade [2]: 5 (Herbicidal ratio of 90% or more (almost completely withered))
- f (beet) effect on crop grade [3]: 4 (Herbicidal ratio of 70% or higher and lower than 90%)
- K (Lolium multiflorum Lam.) herbicidal effect grade [4]: 5 (Herbicidal ratio of 90% or more (almost completely withered))
- herbicidal effect on H (Echinochloa crus-galli var. crus-galli), grade 0-5 [5]: 5 (Herbicidal ratio of 90% or more (almost completely withered))
- effect on crop b (directly sowed rice plant), grade 0-5 [6]: 5 (Herbicidal ratio of 90% or more (almost completely withered))
- herbicidal effect on D (Leptochloa chinensis), grade 0-5 [7]: 5 (Herbicidal ratio of 90% or more (almost completely withered))
- Herbicidal effect grade, C: Monochoria vaginalis [8]: 5 (Herbicidal ratio of 90% or more (almost completely withered))
- d: soybean, effect on crop grade [9]: 4 (Herbicidal ratio of 70% or higher and lower than 90%)
- c: corn, effect on crop grade [10]: 5 (Herbicidal ratio of 90% or more (almost completely withered))
- Herbicidal effect grade, A: Echinochloa oryzacola Vasing. [11]: 5 (Herbicidal ratio of 90% or more (almost completely withered))
- O (Chenopodium album) herbicidal effect grade [12]: 0 (Herbicidal ratio of 5% or lower (almost no effect))

SMILES: CON=C(CC1CC(O)=C(c2c(C)cc(-n3cc(Cl)cn3)cc2C)C1=O)C1CC1 (stereo not drawn) [9-007]
- a (transplanted rice plant) effect on crop grade [1]: 5 (Herbicidal ratio of 90% or more (almost completely withered))
- Herbicidal effect grade, F: Digitaria ciliaris [2]: 5 (Herbicidal ratio of 90% or more (almost completely withered))
- Effect on crop grade, f: beet [3]: 0 (Herbicidal ratio of 5% or lower (almost no effect))
- Herbicidal effect grade, K: Lolium multiflorum Lam. [4]: 5 (Herbicidal ratio of 90% or more (almost completely withered))
- H (Echinochloa crus-galli var. crus-galli) herbicidal effect grade [5]: 5 (Herbicidal ratio of 90% or more (almost completely withered))
- b (directly sowed rice plant) effect on crop grade [6]: 5 (Herbicidal ratio of 90% or more (almost completely withered))
- D (Leptochloa chinensis) herbicidal effect grade [7]: 5 (Herbicidal ratio of 90% or more (almost completely withered))
- C (Monochoria vaginalis) herbicidal effect grade [8]: 0 (Herbicidal ratio of 5% or lower (almost no effect))
- d: soybean, effect on crop grade [9]: 0 (Herbicidal ratio of 5% or lower (almost no effect))
- c: corn, effect on crop grade [10]: 5 (Herbicidal ratio of 90% or more (almost completely withered))
- Herbicidal effect grade, A: Echinochloa oryzacola Vasing. [11]: 5 (Herbicidal ratio of 90% or more (almost completely withered))
- Herbicidal effect grade, O: Chenopodium album [12]: 0 (Herbicidal ratio of 5% or lower (almost no effect))

SMILES: CCC(=O)CC1CC(O)=C(c2c(C)cc(Br)cc2OC)C1=O (racemic) [14-002]
- a (transplanted rice plant) effect on crop grade [1]: 2 (Herbicidal ratio of 20% or higher and lower than 40%)
- F: Digitaria ciliaris, herbicidal effect grade [2]: 5 (Herbicidal ratio of 90% or more (almost completely withered))
- f: beet, effect on crop grade [3]: 0 (Herbicidal ratio of 5% or lower (almost no effect))
- K: Lolium multiflorum Lam., herbicidal effect grade [4]: 5 (Herbicidal ratio of 90% or more (almost completely withered))
- H (Echinochloa crus-galli var. crus-galli) herbicidal effect grade [5]: 5 (Herbicidal ratio of 90% or more (almost completely withered))
- b (directly sowed rice plant) effect on crop grade [6]: 5 (Herbicidal ratio of 90% or more (almost completely withered))
- D (Leptochloa chinensis) herbicidal effect grade [7]: 5 (Herbicidal ratio of 90% or more (almost completely withered))
- C (Monochoria vaginalis) herbicidal effect grade [8]: 2 (Herbicidal ratio of 20% or higher and lower than 40%)
- d: soybean, effect on crop grade [9]: 1 (Herbicidal ratio of 5% or higher and lower than 20%)
- c: corn, effect on crop grade [10]: 5 (Herbicidal ratio of 90% or more (almost completely withered))
- Herbicidal effect grade, A: Echinochloa oryzacola Vasing. [11]: 5 (Herbicidal ratio of 90% or more (almost completely withered))
- O: Chenopodium album, herbicidal effect grade [12]: 0 (Herbicidal ratio of 5% or lower (almost no effect))
